Earlier results as cited in US20060045857A1, “Sunless tanning composition and methods for using” (priority 2004, published 2006).

Settings: in vivo

| Substance | dermal toxicity |
| --- | --- |
| Poly(vinylpyrrolidone/1-hexadecene) [PVPH] | no demonstrable dermal toxicity |
| poly(vinylpyrrolidone/1-eicosene) [PVPE] | no demonstrable dermal toxicity |
